The target in one data set is T1, Cytochrome P450 1A2 (Homo sapiens, UniProt P05177).
T1 sequence (P05177 whole entry): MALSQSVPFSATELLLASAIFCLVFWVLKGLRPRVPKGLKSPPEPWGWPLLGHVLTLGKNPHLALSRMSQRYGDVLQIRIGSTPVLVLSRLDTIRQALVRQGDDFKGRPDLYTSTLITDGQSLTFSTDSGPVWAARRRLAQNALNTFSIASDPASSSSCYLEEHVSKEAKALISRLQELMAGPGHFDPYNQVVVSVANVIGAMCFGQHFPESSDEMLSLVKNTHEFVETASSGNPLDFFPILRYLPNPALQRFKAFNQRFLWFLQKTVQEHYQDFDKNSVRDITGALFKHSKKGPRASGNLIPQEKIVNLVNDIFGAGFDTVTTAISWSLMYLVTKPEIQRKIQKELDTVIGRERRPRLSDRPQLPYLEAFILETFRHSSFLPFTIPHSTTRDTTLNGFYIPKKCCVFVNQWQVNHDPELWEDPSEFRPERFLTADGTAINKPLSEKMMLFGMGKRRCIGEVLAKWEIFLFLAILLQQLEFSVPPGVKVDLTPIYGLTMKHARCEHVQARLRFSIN
The settings on record: bti-tn-5b1-4.

Data set [1] has as its target T2, Muscarinic acetylcholine receptor M4 (Homo sapiens, UniProt P08173).
T2 sequence (P08173 whole entry): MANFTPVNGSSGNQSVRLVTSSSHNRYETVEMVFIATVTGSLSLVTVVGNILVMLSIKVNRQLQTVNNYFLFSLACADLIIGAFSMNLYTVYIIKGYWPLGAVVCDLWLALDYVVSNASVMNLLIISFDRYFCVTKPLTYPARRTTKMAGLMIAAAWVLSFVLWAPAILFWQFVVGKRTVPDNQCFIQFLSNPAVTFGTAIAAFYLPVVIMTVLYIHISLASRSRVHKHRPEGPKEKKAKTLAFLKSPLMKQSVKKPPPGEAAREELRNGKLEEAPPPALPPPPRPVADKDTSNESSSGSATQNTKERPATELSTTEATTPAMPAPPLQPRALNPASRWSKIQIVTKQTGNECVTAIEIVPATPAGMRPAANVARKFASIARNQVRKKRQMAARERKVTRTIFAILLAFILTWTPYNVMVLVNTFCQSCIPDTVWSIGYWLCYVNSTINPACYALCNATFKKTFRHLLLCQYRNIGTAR
Format: cell membranes, CHO-K1, Membrane. To be noted: for Ki: read-out: Ki.

The next data set concerns the target Cytochrome P450 3A4 (Homo sapiens, UniProt P08684). To be noted: bti-tn-5b1-4.
Data set [2] concerns the target T3, Nitric oxide synthase, inducible (Mus musculus, UniProt P29477).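 Further: inhibition of iNOS enzyme activity measured with L-arginine as substrate.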
T3 sequence (P29477 whole entry): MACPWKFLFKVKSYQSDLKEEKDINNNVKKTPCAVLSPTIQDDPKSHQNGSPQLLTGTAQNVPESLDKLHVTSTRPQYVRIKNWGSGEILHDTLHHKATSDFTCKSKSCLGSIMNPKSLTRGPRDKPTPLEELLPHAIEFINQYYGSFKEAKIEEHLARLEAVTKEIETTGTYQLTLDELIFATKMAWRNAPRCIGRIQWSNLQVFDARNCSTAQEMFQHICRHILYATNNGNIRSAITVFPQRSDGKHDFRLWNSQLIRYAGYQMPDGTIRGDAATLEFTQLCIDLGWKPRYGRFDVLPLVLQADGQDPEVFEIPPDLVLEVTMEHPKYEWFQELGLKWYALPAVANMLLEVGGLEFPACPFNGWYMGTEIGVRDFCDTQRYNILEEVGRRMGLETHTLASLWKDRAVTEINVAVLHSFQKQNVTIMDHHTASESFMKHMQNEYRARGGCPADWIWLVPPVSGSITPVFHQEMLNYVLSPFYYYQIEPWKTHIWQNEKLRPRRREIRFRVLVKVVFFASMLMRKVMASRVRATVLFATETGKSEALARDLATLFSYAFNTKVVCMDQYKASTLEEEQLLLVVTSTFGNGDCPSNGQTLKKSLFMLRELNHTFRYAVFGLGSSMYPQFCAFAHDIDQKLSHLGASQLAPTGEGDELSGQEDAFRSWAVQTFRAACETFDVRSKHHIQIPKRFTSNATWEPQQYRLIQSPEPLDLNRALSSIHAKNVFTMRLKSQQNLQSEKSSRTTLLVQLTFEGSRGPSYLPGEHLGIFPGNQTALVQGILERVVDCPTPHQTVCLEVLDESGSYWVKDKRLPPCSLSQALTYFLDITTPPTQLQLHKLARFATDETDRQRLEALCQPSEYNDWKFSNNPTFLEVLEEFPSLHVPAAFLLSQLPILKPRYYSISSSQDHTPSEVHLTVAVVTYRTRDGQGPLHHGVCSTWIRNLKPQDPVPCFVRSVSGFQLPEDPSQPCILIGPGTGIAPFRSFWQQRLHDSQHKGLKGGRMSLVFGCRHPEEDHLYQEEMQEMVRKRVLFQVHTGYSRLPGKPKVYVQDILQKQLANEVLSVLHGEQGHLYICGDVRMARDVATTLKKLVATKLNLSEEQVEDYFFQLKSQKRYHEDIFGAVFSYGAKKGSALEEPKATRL
More on the design: species or system Escherichia coli.

The target of the next data set is Estrogen receptor beta (Homo sapiens, UniProt Q92731). To be noted: sf9.
Chain of Estrogen receptor beta (Q92731 whole entry): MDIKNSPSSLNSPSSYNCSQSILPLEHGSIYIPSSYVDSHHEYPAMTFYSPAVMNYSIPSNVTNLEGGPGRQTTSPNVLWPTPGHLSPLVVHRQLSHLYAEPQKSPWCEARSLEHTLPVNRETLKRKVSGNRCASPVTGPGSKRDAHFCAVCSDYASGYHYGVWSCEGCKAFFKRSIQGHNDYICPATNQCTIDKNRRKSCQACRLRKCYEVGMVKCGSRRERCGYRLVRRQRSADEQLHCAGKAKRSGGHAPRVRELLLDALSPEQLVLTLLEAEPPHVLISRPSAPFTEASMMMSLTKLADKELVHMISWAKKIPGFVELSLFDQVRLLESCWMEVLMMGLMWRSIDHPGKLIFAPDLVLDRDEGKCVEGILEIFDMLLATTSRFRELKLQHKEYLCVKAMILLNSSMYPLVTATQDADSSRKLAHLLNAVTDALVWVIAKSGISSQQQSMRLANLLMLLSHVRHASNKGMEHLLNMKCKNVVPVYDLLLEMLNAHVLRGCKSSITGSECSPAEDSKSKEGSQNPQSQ
In data set [3] the target is T4, Neuropeptide Y receptor type 1 (Homo sapiens, UniProt P25929).
T4 sequence (P25929 whole entry): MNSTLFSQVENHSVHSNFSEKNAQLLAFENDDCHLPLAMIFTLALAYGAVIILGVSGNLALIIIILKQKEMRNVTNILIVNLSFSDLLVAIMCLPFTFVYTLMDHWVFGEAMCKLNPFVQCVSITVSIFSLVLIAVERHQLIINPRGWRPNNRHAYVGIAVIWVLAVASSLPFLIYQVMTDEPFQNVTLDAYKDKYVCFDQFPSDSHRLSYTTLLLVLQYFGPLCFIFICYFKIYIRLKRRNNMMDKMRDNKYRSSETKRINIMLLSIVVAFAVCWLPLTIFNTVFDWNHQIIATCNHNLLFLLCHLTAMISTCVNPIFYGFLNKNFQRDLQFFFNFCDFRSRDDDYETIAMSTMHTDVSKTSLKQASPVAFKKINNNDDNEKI
Format: cell membranes, Membrane. To be noted: sk-n-mc.

Molecules are shown by their SMILES.
Further: in other assays of this panel Not Active means under 50% inhibition at 10 µM.

Chain of Cytochrome P450 3A4 (P08684 whole entry): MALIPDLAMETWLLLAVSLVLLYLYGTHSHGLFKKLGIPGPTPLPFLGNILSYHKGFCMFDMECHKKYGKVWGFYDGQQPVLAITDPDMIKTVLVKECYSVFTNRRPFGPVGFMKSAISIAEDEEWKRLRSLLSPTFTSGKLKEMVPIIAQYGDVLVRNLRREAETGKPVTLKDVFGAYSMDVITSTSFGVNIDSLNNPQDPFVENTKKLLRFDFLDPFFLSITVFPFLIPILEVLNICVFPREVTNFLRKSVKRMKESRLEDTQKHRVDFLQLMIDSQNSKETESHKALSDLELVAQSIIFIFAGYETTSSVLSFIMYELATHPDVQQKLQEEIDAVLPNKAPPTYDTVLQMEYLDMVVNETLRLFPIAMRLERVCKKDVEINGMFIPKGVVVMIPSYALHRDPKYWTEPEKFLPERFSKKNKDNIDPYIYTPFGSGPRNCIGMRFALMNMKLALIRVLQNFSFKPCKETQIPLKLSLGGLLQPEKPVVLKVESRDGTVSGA

One may read the IC50 as the concentration that gives 50% inhibition. Broadly, the Ki is a measure of affinity in units of concentration, obtained from inhibition or displacement. With `O=c1[nH]c(=O)n([C@H]2C[C@H](O)[C@@H](CO)O2)cc1F` [FLOXURIDINE], the IC50 entry (against Cytochrome P450 1A2; in data set [1] (cho-k1); against Cytochrome P450 3A4; in data set [2]; against Estrogen receptor beta; in data set [3]) was “Not Active” in each case. Moreover, the Ki entry at Cytochrome P450 1A2 and at Cytochrome P450 3A4 was “Not Active” in each case.
With `COC(=O)Nc1nc2cc(C(=O)c3ccc(F)cc3)ccc2[nH]1` [FLUBENDAZOLE], the IC50 result (against Cytochrome P450 1A2; in data set [1] (cho-k1); against Cytochrome P450 3A4; in data set [2]; against Estrogen receptor beta; in data set [3]) was “Not Active” throughout. For the same compound, the Ki entry at Cytochrome P450 1A2 and at Cytochrome P450 3A4 was “Not Active” each time.
In the case of `CC(=O)OCC(=O)[C@@]1(O)CC[C@H]2[C@@H]3CCC4=CC(=O)CC[C@]4(C)[C@@]3(F)[C@@H](O)C[C@@]21C` [FLUDROCORTISONE ACETATE], the IC50 entry (at Cytochrome P450 1A2; in data set [1] (cho-k1); at Cytochrome P450 3A4; in data set [2]; against Estrogen receptor beta; in data set [3]) was “Not Active” in each case. The Ki result at Cytochrome P450 1A2 and at Cytochrome P450 3A4 was “Not Active” each time.
Consider `Cc1ccc(C)c(OCCCC(C)(C)C(=O)O)c1` [GEMFIBROZIL], for which the IC50 entry (at Cytochrome P450 1A2; in data set [1] (cho-k1); at Cytochrome P450 3A4; in data set [2]; at Estrogen receptor beta; in data set [3]) was “Not Active” throughout. Also, the Ki entry on Cytochrome P450 1A2 and at Cytochrome P450 3A4 was “Not Active” each time.
As for `CCC1=C(C)CN(C(=O)NCCc2ccc(S(=O)(=O)NC(=O)N[C@H]3CC[C@H](C)CC3)cc2)C1=O` [GLIMEPIRIDE], the IC50 result (against Cytochrome P450 1A2; in data set [1] (cho-k1); against Cytochrome P450 3A4; in data set [2]; against Estrogen receptor beta; in data set [3]) was “Not Active” each time. The Ki entry on Cytochrome P450 1A2 and on Cytochrome P450 3A4 was “Not Active” each time.
As to `Nc1cc(-c2ccncc2)c[nH]c1=O` [INAMRINONE], the IC50 entry (against Cytochrome P450 1A2; in data set [1] (cho-k1); at Cytochrome P450 3A4; in data set [2]; against Estrogen receptor beta; in data set [3]) was “Not Active” throughout. The Ki entry on Cytochrome P450 1A2 and on Cytochrome P450 3A4 was “Not Active” each time.
With `CCCCC1=NC2(CCCC2)C(=O)N1Cc1ccc(-c2ccccc2-c2nnn[nH]2)cc1` [IRBESARTAN], the IC50 result (on Cytochrome P450 1A2; in data set [1] (cho-k1); on Cytochrome P450 3A4; in data set [2]; against Estrogen receptor beta; in data set [3]) was “Not Active” in each case. Also, the Ki result on Cytochrome P450 1A2 and at Cytochrome P450 3A4 was “Not Active” throughout.
On to `CN1CCC(=C2c3ccccc3CC(=O)c3sccc32)CC1` [KETOTIFEN], for which the IC50 entry on Cytochrome P450 1A2 was “Not Active”; in data set [1] (read-out: IC50) it was 1010 nM; against Cytochrome P450 3A4, “Not Active”; in data set [2], “Not Active”; on Estrogen receptor beta it was “Not Active”; in data set [3], “Not Active”. The results for the Ki result (on Cytochrome P450 1A2; in data set [1]; at Cytochrome P450 3A4) were “Not Active”, 141 nM and “Not Active”, respectively.
Turning to `CN1CCCC(CN2c3ccccc3Sc3ccccc32)C1` (configuration not stated) [MEPAZINE], the IC50 entry was “Not Active” at Cytochrome P450 1A2; 137 nM in data set [1] (read-out: IC50); “Not Active” at Cytochrome P450 3A4; “Not Active” in data set [2]; “Not Active” at Estrogen receptor beta; “Not Active” in data set [3]. For the same compound, the Ki entry at Cytochrome P450 1A2 was “Not Active”; in data set [1] it was 19 nM; at Cytochrome P450 3A4, “Not Active”.
For the compound `Cc1cccc(C)c1NC(=O)C1CCCCN1C` (configuration not stated) [MEPIVACAINE], the IC50 entry (against Cytochrome P450 1A2; in data set [1] (cho-k1); at Cytochrome P450 3A4; in data set [2]; on Estrogen receptor beta; in data set [3]) was “Not Active” in each case. The Ki entry on Cytochrome P450 1A2 and on Cytochrome P450 3A4 was “Not Active” each time.
As for `C[C@]12CC[C@H]3[C@@H](CCC4=CC(=O)CC[C@@H]43)[C@@H]1CC[C@@H]2O` [NANDROLONE], the IC50 result (at Cytochrome P450 1A2; in data set [1] (cho-k1); on Cytochrome P450 3A4; in data set [2]; at Estrogen receptor beta; in data set [3]) was “Not Active” in each case. Also, the Ki result at Cytochrome P450 1A2 and on Cytochrome P450 3A4 was “Not Active” in each case.
For the compound `NC(=O)c1cccnc1` [NIACINAMIDE], the IC50 entry (against Cytochrome P450 1A2; in data set [1] (cho-k1); against Cytochrome P450 3A4; in data set [2]; against Estrogen receptor beta; in data set [3]) was “Not Active” each time. Also, the Ki result on Cytochrome P450 1A2 and on Cytochrome P450 3A4 was “Not Active” each time.
With `CS(=O)(=O)Nc1ccc([N+](=O)[O-])cc1Oc1ccccc1` [NIMESULIDE], the IC50 result (against Cytochrome P450 1A2; in data set [1] (cho-k1); at Cytochrome P450 3A4; in data set [2]; on Estrogen receptor beta; in data set [3]) was “Not Active” throughout. The Ki result on Cytochrome P450 1A2 and at Cytochrome P450 3A4 was “Not Active” throughout.
In the case of `NC(=O)N1c2ccccc2CC(=O)c2ccccc21` [OXCARBAZEPINE], the IC50 result (against Cytochrome P450 1A2; in data set [1] (cho-k1); at Cytochrome P450 3A4; in data set [2]; against Estrogen receptor beta; in data set [3]) was “Not Active” in each case. For the same compound, the Ki result at Cytochrome P450 1A2 and at Cytochrome P450 3A4 was “Not Active” throughout.
Consider `COc1ccnc(C[S+]([O-])c2nc3ccc(OC(F)F)cc3[nH]2)c1OC` (configuration not stated) [PANTOPRAZOLE], for which the IC50 entry (against Cytochrome P450 1A2; in data set [1] (cho-k1); against Cytochrome P450 3A4; in data set [2]; at Estrogen receptor beta; in data set [3]) was “Not Active” in each case. The Ki result at Cytochrome P450 1A2 and on Cytochrome P450 3A4 was “Not Active” each time.

Source of the values: ChEMBL document CHEMBL1909046, “DrugMatrix in vitro pharmacology data”.
